In patent US20170320870A1 (Medical Research Council Technology, priority 2009, published 2017) one finds IC50 data, which are given here for 39 molecules.

Structures are written as SMILES. Bounds are passed on as bounds.

The test deals with T1, LRRK2 wild type (recombinant human, catalytic domain amino acids 970-2527, GST-tagged) (Homo sapiens, UniProt Q5S007).
T1 construct: The wild type used was recombinant human, catalytic domain (amino acids 970-2527) GST-tagged, expressed in insect cells; GST; purchased Invitrogen Corporation PV4873; host or cells: insect cells
T1 sequence (Q5S007 970-2527): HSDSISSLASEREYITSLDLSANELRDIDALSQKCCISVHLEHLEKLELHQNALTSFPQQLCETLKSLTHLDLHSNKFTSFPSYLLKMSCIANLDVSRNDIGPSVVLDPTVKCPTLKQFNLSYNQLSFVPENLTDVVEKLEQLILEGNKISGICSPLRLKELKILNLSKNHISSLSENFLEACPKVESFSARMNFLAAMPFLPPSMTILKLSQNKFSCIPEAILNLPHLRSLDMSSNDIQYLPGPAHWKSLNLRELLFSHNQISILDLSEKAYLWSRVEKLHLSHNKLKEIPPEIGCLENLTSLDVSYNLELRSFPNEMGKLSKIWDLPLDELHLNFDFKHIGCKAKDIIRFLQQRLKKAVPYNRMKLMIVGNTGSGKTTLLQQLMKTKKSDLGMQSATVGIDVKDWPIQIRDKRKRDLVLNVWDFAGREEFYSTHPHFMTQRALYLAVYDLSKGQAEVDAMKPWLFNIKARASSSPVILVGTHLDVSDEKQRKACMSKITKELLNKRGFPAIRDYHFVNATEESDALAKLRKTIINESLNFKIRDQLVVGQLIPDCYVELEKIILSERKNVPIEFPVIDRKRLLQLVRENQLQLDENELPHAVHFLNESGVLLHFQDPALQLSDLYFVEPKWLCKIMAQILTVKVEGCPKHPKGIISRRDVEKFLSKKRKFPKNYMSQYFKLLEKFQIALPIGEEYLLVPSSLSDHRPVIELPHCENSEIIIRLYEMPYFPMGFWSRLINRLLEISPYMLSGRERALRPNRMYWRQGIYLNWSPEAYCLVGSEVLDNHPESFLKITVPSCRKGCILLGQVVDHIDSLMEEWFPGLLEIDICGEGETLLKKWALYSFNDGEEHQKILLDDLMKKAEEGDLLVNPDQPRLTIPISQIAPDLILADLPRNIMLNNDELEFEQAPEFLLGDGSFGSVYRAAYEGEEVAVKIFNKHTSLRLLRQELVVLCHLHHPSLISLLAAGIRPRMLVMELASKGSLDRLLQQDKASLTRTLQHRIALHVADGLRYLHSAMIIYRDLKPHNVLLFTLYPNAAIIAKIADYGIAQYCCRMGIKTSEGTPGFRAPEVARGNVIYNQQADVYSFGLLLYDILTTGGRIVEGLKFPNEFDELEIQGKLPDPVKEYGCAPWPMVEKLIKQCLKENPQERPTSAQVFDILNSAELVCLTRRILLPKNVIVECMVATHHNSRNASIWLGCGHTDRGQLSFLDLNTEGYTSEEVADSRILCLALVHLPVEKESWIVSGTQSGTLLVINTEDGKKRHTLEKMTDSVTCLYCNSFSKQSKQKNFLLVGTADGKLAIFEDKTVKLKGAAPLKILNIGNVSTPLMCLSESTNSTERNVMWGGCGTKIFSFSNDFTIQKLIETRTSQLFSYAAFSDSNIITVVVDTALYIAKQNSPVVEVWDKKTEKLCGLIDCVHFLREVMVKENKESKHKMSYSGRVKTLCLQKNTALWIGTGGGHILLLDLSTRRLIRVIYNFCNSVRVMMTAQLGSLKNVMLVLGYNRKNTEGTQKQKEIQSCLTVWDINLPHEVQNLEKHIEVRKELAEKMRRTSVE
The experiment in a line: LRRK2 wild type protein kinase assay ([γ-33P] ATP, peptide substrate […]), IC50. The format is biochemical. As to conditions: LRRK2 (variant not given); read-out: Potency score, LRRK2 IC50. The text has this:
All LRRK2 protein kinases were of human origin and were sourced from Invitrogen Corporation (Carlsbad, Calif. 92008 USA) unless otherwise indicated. The active mutant used was recombinant human, catalytic domain (amino acids 970-2527) containing a G2019S mutation, GST-tagged, expressed in insect cells (Invitrogen Cat#PV4881). The wild type used was recombinant human, catalytic domain (amino acids 970-2527) GST-tagged, expressed in insect cells (Invitrogen Cat#PV4873). The kinase dead mutant used was recombinant human, catalytic domain (amino acids 970-2527) containing a D1994A mutation, GST-tagged, expressed in insect cells (Invitrogen Cat#PM4041AE). No special measures were taken to activate any of the kinases.
All assays were carried out at room temperature (˜21° C.) and were linear with respect to time and enzyme concentration under the conditions used. Assays were performed for 180 min in a 96 well format. LRRK2 was present at a concentration of approximately 5 nM. The enzyme was diluted and assayed in 50 mM Tris-HCl pH7.5, 0.1 mM EGTA, 1 mM DTT and 10 mM MgCl2. The concentration of magnesium chloride in the assay was 10 mM. The [γ-33P] […] The peptide substrate in the assay was […] at 100 μM.
The assays were initiated with Mg/ATP and stopped by the addition of 25 μl/well 50% orthophosphoric acid. Reactions were harvested onto Whatman P81 Unifilter Plates (Fisher Scientific. Loughborough, LE115RG, UK. Cat# FDU-105-020U) using a Tomtec harvester. (Tomtec Hamden, Conn. 06514. USA) Plates were counted using a Perkin Elmer Top Count NX7. (Perkin Elmer, Shelton Conn. 06484-4794 USA)
IC50 values of inhibitors were determined after carrying out assays at 10 different concentrations of each compound in duplicate.

Take `Fc1cccc(-c2n[nH]c3ccnc(NC4CCCCC4)c23)c1F` [Example 159]: the IC50 fell in the range of 1000 to 10000 nM.

For `O=C(CCc1n[nH]c2ccnc(NC3CCCCC3)c12)N1CCN(c2cccc(Cl)c2)CC1` [Example 180, 1-[4-(3-Chloro-phenyl)-piperazin-1-yl]-3-(4-cyclohexylamino-1H-pyrazolo[4,3-c]pyridin-3-yl)-propan-1-one], the IC50 fell in the range of 100 to 1000 nM.

`Cc1n[nH]c2ccnc(NC3CCC3)c12` [Example 22, Cyclobutyl-(3-methyl-1H-pyrazolo[4,3-c]pyridin-4-yl)-amine]: the half-maximal inhibitory concentration (IC50) was 100 to 1000 nM.

Take `CC(=O)N1CCC(Nc2nccc3[nH]nc(C)c23)CC1` [Example 101, 1-[4-(3-Methyl-1H-pyrazolo[4,3-c]pyridin-4-ylamino)-piperidin-1-yl]-ethanone]: the IC50 is 100 to 1000 nM.

Regarding `c1ccc2c(-c3n[nH]c4ccnc(NC5CCCCC5)c34)cncc2c1` [Example 164, Cyclohexyl-(3-isoquinolin-4-yl-1H-pyrazolo[4,3-c]pyridin-4-yl)-amine], the IC50 was 1000 to 10000 nM.

Consider `O=C(Nc1ccncc1)c1ccc(CCc2n[nH]c3ccnc(NC4CCCCC4)c23)cc1` [Example 256, 4-[2-(4-Cyclohexylamino-1H-pyrazolo[4,3-c]pyridin-3-yl)-ethyl]-N-pyridin-4-yl-benzamide], for which the IC50 was less than 100 nM.

In the case of `Cc1n[nH]c2ccnc(N[C@H](C)c3ccccc3)c12` [Example 19, (3-Methyl-1H-pyrazolo[4,3-c]pyridin-4-yl)-((R)-1-phenyl-ethyl)-amine], the IC50 was in the range of 1000 to 10000 nM.

`Cc1n[nH]c2ccnc(Nc3ccc(N4CCOCC4)nc3)c12` [Example 63, (3-Methyl-1H-pyrazolo[4,3-c]pyridin-4-yl)-(6-morpholin-4-yl-pyridin-3-yl)-amine]: the IC50 is 100 to 1000 nM.

For `Cc1n[nH]c2ccnc(OCCC(F)(F)F)c12` [Example 295, 3-Methyl-4-(3,3,3-trifluoro-propoxy)-1H-pyrazolo[4,3-c]pyridine], the IC50 lay in the range of 100 to 1000 nM.

Take `c1cc2[nH]nc(-c3cnc(N4CCOCC4)nc3)c2c(NC2CCCCC2)n1` [Example 160, Cyclohexyl-[3-(2-morpholin-4-yl-pyrimidin-5-yl)-1H-pyrazolo[4,3-c]pyridin-4-yl]-amine]: the IC50 fell in the range of 100 to 1000 nM.

In the case of `O=C(CCc1n[nH]c2ccnc(NC3CCCCC3)c12)N1CCC(c2cccnc2)C1` (stereo not drawn) [Example 207, 3-(4-Cyclohexylamino-1H-pyrazolo[4,3-c]pyridin-3-yl)-1-(3-pyridin-3-yl-pyrrolidin-1-yl)-propan-1-one], the half-inhibitory concentration (IC50) is less than 100 nM.

Take `Nc1cccc(CCc2n[nH]c3ccnc(NC4CCCCC4)c23)c1` [Example 221, {3-[2-(3-Amino-phenyl)-ethyl]-1H-pyrazolo[4,3-c]pyridin-4-yl}-cyclohexyl-amine]: the half-maximal inhibitory concentration (IC50) is less than 100 nM.

As for `O=C(CCc1n[nH]c2ccnc(NC3CCCCC3)c12)Nc1cccnc1` [Example 188, 3-(4-Cyclohexylamino-1H-pyrazolo[4,3-c]pyridin-3-yl)-N-pyridin-3-yl-propionamide], the IC50 lay in the range of 1000 to 10000 nM.

`CC(=O)NCCNc1nccc2[nH]nc(C)c12` [Example 302, N-[2-(3-Methyl-1H-pyrazolo[4,3-c]pyridin-4-ylamino)-ethyl]-acetamide]: the IC50 lay within 1000 to 10000 nM.

In the case of `CC(=O)Nc1ccc(C(=O)Nc2ccc(CCc3n[nH]c4ccnc(NC5CCCCC5)c34)cc2)cc1` [Example 264, 4-Acetylamino-N-{4-[2-(4-cyclohexylamino-1H-pyrazolo[4,3-c]pyridin-3-yl)-ethyl]-phenyl}-benzamide], the IC50 was less than 100 nM.

Regarding `Cc1n[nH]c2ccnc(N3CCN(c4ccccn4)CC3)c12` [Example 9, 3-Methyl-4-(4-pyridin-2-yl-piperazin-1-yl)-1H-pyrazolo[4,3-c]pyridine], the IC50 is 1000 to 10000 nM.

Turning to `Cc1n[nH]c2ccnc(O[C@H]3CC[C@H](C)CC3)c12` [Example 294, Trans-3-Methyl-4-(4-methyl-cyclohexyloxy)-1H-pyrazolo[4,3-c]pyridine], the IC50 was less than 100 nM.

Take `Cc1n[nH]c2ccnc(-c3ccco3)c12` [Example 48, 4-Furan-2-yl-3-methyl-1H-pyrazolo[4,3-c]pyridine]: the IC50 was in the range of 100 to 1000 nM.

On to `Cc1n[nH]c2ccnc(Nc3ccccc3)c12` [Example 70, (3-Methyl-1H-pyrazolo[4,3-c]pyridin-4-yl)-phenyl-amine], for which the IC50 was 100 to 1000 nM.

Turning to `Cc1n[nH]c2ccnc(NCCc3ccccc3F)c12` [Example 332, [2-(2-Fluoro-phenyl)-ethyl]-(3-methyl-1H-pyrazolo[4,3-c]pyridin-4-yl)-amine], the IC50 was 100 to 1000 nM.

For the molecule `Cc1n[nH]c2ccnc(Nc3ccc4nc[nH]c4c3)c12` [Example 81, (3H-Benzimidazol-5-yl)-(3-methyl-1H-pyrazolo[4,3-c]pyridin-4-yl)-amine], the IC50 is 100 to 1000 nM.

In the case of `Cc1n[nH]c2ccnc(Nc3cc(F)ccc3F)c12` [Example 308, (2,5-Difluoro-phenyl)-(3-methyl-1H-pyrazolo[4,3-c]pyridin-4-yl)-amine], the IC50 is 100 to 1000 nM.

For `Cc1n[nH]c2ccnc(Nc3ccc(C(=O)N(C)C)cc3)c12` [Example 74, N,N-Dimethyl-4-(3-methyl-1H-pyrazolo[4,3-c]pyridin-4-ylamino)-benzamide], the IC50 lay in the range of 100 to 1000 nM.

Take `Cc1n[nH]c2ccnc(Nc3ccc(C(=O)NC4CCCC4)cc3)c12` [Example 106, N-Cyclopentyl-4-(3-methyl-1H-pyrazolo[4,3-c]pyridin-4-ylamino)-benzamide]: the IC50 was 1000 to 10000 nM.

In the case of `Cc1n[nH]c2ccnc(-c3cnn(C)c3)c12` [Example 47, 3-Methyl-4-(1-methyl-1H-pyrazol-4-yl)-1H-pyrazolo[4,3-c]pyridine], the half-inhibitory concentration (IC50) was in the range of 1000 to 10000 nM.

For `O=C(CCc1n[nH]c2ccnc(NC3CCCCC3)c12)Nc1cccc(F)c1` [Example 187, 3-(4-Cyclohexylamino-1H-pyrazolo[4,3-c]pyridin-3-yl)-N-(3-fluoro-phenyl)-propionamide], the IC50 is 1000 to 10000 nM.

Consider `Cc1n[nH]c2ccnc(OC3CCC3)c12` [Example 281, 4-Cyclobutoxy-3-methyl-1H-pyrazolo[4,3-c]pyridine], for which the IC50 was 100 to 1000 nM.

In the case of `Cc1n[nH]c2ccnc(Nc3ccc4cnn(C)c4c3)c12` [Example 90, (1-Methyl-1H-indazol-6-yl)-(3-methyl-1H-pyrazolo[4,3-c]pyridin-4-yl)-amine], the IC50 was in the range of 100 to 1000 nM.

With `O=C(CCc1n[nH]c2ccnc(NC3CCCCC3)c12)N1CCC(C(F)(F)F)CC1` [Example 203, 3-(4-Cyclohexylamino-1H-pyrazolo[4,3-c]pyridin-3-yl)-1-(4-trifluoromethyl-piperidin-1-yl)-propan-1-one], the IC50 lay within 100 to 1000 nM.

With `COc1ccc(CCNc2nccc3[nH]nc(C)c23)cc1` [Example 338, [2-(4-Methoxy-phenyl)-ethyl]-(3-methyl-1H-pyrazolo[4,3-c]pyridin-4-yl)-amine], the IC50 lay within 1000 to 10000 nM.

Turning to `O=C(CCc1n[nH]c2ccnc(NC3CCCCC3)c12)N1CCCC(Oc2ccccc2)C1` (stereo not drawn) [Example 238, 3-(4-Cyclohexylamino-1H-pyrazolo[4,3-c]pyridin-3-yl)-1-(3-phenoxy-piperidin-1-yl)-propan-1-one], the half-inhibitory concentration (IC50) lay within 100 to 1000 nM.

Regarding `Cc1n[nH]c2ccnc(NCCc3cccc(F)c3)c12` [Example 333, [2-(3-Fluoro-phenyl)-ethyl]-(3-methyl-1H-pyrazolo[4,3-c]pyridin-4-yl)-amine], the IC50 lay in the range of 100 to 1000 nM.

Regarding `Cc1n[nH]c2ccnc(Nc3ccc(Cl)cc3Cl)c12` [Example 306, (2,4-Dichloro-phenyl)-(3-methyl-1H-pyrazolo[4,3-c]pyridin-4-yl)-amine], the IC50 lay in the range of 100 to 1000 nM.

`Cc1n[nH]c2ccnc(Nc3cccc(-c4nnco4)c3)c12` [Example 353]: the half-inhibitory concentration (IC50) lay in the range of 1000 to 10000 nM.

With `Cc1n[nH]c2ccnc(Oc3ccc(-n4ccnc4)cc3)c12` [Example 120, 4-(4-Imidazol-1-yl-phenoxy)-3-methyl-1H-pyrazolo[4,3-c]pyridine], the IC50 is 100 to 1000 nM.

`Cc1n[nH]c2ccnc(-c3ccc(F)cc3)c12` [Example 50, 4-(4-Fluoro-phenyl)-3-methyl-1H-pyrazolo[4,3-c]pyridine]: the IC50 was in the range of 1000 to 10000 nM.

Regarding `CC(=O)Nc1cccc(Nc2nccc3[nH]nc(C)c23)c1` [Example 78, N-[3-(3-Methyl-1H-pyrazolo[4,3-c]pyridin-4-ylamino)-phenyl]-acetamide], the IC50 lay in the range of 1000 to 10000 nM.

Consider `CNC(=O)c1ccc(-c2n[nH]c3ccnc(NC4CCCCC4)c23)cc1` [Example 139, 4-(4-Cyclohexylamino-1H-pyrazolo[4,3-c]pyridin-3-yl)-N-methyl-benzamide], for which the IC50 is 1000 to 10000 nM.

Turning to `Cc1n[nH]c2ccnc(Nc3ccc4ncoc4c3)c12` [Example 349, Benzoxazol-6-yl-(3-methyl-1H-pyrazolo[4,3-c]pyridin-4-yl)-amine], the IC50 was in the range of 100 to 1000 nM.

As a reminder, the IC50 is the midpoint of a concentration-inhibition curve.
